# ChEMBL document CHEMBL2396621, “Design, synthesis and biological evaluation of 2-mercapto-3-phenethylquinazoline bearing anilide fragments as potential antitumor agents: molecular docking study” (2013)
# What was measured:
# Assay type in all cases: functional
# [1] = system: NCI-H23; experiment: Cytotoxicity against human NCI-H23 cells assessed as growth inhibition at 10 uM after 48 hrs by coulter counter analysis; conditions: NCI-H23, 48 h, read-out: GI
# [2] = system: NCI-H226; experiment: Cytotoxicity against human NCI-H226 cells assessed as growth inhibition at 10 uM after 48 hrs by coulter counter analysis; conditions: NCI-H226, 48 h, read-out: GI
# [3] = system: HOP-62; experiment: Cytotoxicity against human HOP62 cells assessed as growth inhibition at 10 uM after 48 hrs by coulter counter analysis; conditions: HOP-62, 48 h, read-out: GI
# [4] = Cytotoxicity against human EKVX cells assessed as growth inhibition at 10 uM after 48 hrs by coulter counter analysis; conditions: read-out: GI
# [5] = system: Hs-578T; experiment: Cytotoxicity against human Hs578T cells assessed as growth inhibition at 10 uM after 48 hrs by coulter counter analysis; conditions: read-out: GI
# [6] = system: MDA-MB-231; experiment: Cytotoxicity against human MDA-MB-231 cells assessed as growth inhibition at 10 uM after 48 hrs by coulter counter analysis; conditions: MDA-MB-231, 48 h, read-out: GI
# [7] = system: DU-145; experiment: Cytotoxicity against human DU145 cells assessed as growth inhibition at 10 uM after 48 hrs by coulter counter analysis; conditions: DU-145, 48 h, read-out: GI
# [8] = system: PC-3; experiment: Cytotoxicity against human PC3 cells assessed as growth inhibition at 10 uM after 48 hrs by coulter counter analysis; conditions: PC-3, 48 h, read-out: GI
# [9] = system: UO-31; experiment: Cytotoxicity against human UO31 cells assessed as growth inhibition at 10 uM after 48 hrs by coulter counter analysis; conditions: UO-31, 48 h, read-out: GI
# [10] = system: TK-10; experiment: Cytotoxicity against human TK10 cells assessed as growth inhibition at 10 uM after 48 hrs by coulter counter analysis; conditions: TK-10, 48 h, read-out: GI
# [11] = system: RXF 393; experiment: Cytotoxicity against human RXF393 cells assessed as growth inhibition at 10 uM after 48 hrs by coulter counter analysis; conditions: RXF 393, 48 h, read-out: GI
# [12] = system: CAKI-1; experiment: Cytotoxicity against human Caki1 cells assessed as growth inhibition at 10 uM after 48 hrs by coulter counter analysis; conditions: CAKI-1, 48 h, read-out: GI
# [13] = system: ACHN; experiment: Cytotoxicity against human ACHN cells assessed as growth inhibition at 10 uM after 48 hrs by coulter counter analysis; conditions: read-out: GI
# [14] = system: A498; experiment: Cytotoxicity against human A498 cells assessed as growth inhibition at 10 uM after 48 hrs by coulter counter analysis; conditions: A498, 48 h, read-out: GI
# [15] = system: SK-OV-3; experiment: Cytotoxicity against human SKOV3 cells assessed as growth inhibition at 10 uM after 48 hrs by coulter counter analysis; conditions: SK-OV-3, 48 h, read-out: GI
# [16] = system: 786-0; experiment: Cytotoxicity against human 786-0 cells assessed as growth inhibition at 10 uM after 48 hrs by coulter counter analysis; conditions: 786-0, 48 h, read-out: GI
# [17] = Cytotoxicity against human NCI-ADR-RES cells assessed as growth inhibition at 10 uM after 48 hrs by coulter counter analysis; conditions: read-out: GI
# [18] = system: OVCAR-5; experiment: Cytotoxicity against human OVCAR5 cells assessed as growth inhibition at 10 uM after 48 hrs by coulter counter analysis; conditions: OVCAR-5, 48 h, read-out: GI
# [19] = system: OVCAR-4; experiment: Cytotoxicity against human OVCAR4 cells assessed as growth inhibition at 10 uM after 48 hrs by coulter counter analysis; conditions: OVCAR-4, 48 h, read-out: GI
# [20] = system: IGROV-1; experiment: Cytotoxicity against human IGROV1 cells assessed as growth inhibition at 10 uM after 48 hrs by coulter counter analysis; conditions: IGROV-1, 48 h, read-out: GI
# [21] = system: UACC-62; experiment: Cytotoxicity against human UACC62 cells assessed as growth inhibition at 10 uM after 48 hrs by coulter counter analysis; conditions: UACC-62, 48 h, read-out: GI
# [22] = system: UACC-257; experiment: Cytotoxicity against human UACC257 cells assessed as growth inhibition at 10 uM after 48 hrs by coulter counter analysis; conditions: UACC-257, 48 h, read-out: GI
# [23] = system: MDA-MB-435; experiment: Cytotoxicity against human MDA-MB-435 cells assessed as growth inhibition at 10 uM after 48 hrs by coulter counter analysis; conditions: MDA-MB-435, 48 h, read-out: GI
# [24] = system: M14; experiment: Cytotoxicity against human M14 cells assessed as growth inhibition at 10 uM after 48 hrs by coulter counter analysis; conditions: M14, 48 h, read-out: GI
# [25] = system: Malme-3M; experiment: Cytotoxicity against human MALME-3M cells assessed as growth inhibition at 10 uM after 48 hrs by coulter counter analysis; conditions: read-out: GI
# [26] = system: LOX IMVI; experiment: Cytotoxicity against human LOXIMVI cells assessed as growth inhibition at 10 uM after 48 hrs by coulter counter analysis; conditions: read-out: GI
# [27] = system: U-251; experiment: Cytotoxicity against human U251 cells assessed as growth inhibition at 10 uM after 48 hrs by coulter counter analysis; conditions: U-251, 48 h, read-out: GI
# [28] = system: SF-539; experiment: Cytotoxicity against human SF539 cells assessed as growth inhibition at 10 uM after 48 hrs by coulter counter analysis; conditions: SF-539, 48 h, read-out: GI
# [29] = system: SF-295; experiment: Cytotoxicity against human SF295 cells assessed as growth inhibition at 10 uM after 48 hrs by coulter counter analysis; conditions: SF-295, 48 h, read-out: GI
# [30] = system: SW-620; experiment: Cytotoxicity against human SW620 cells assessed as growth inhibition at 10 uM after 48 hrs by coulter counter analysis; conditions: SW-620, 48 h, read-out: GI
# [31] = system: KM12; experiment: Cytotoxicity against human KM12 cells assessed as growth inhibition at 10 uM after 48 hrs by coulter counter analysis; conditions: KM12, 48 h, read-out: GI
# [32] = system: HT-29; experiment: Cytotoxicity against human HT-29 cells assessed as growth inhibition at 10 uM after 48 hrs by coulter counter analysis; conditions: HT-29, 48 h, read-out: GI
# [33] = system: HCT-15; experiment: Cytotoxicity against human HCT15 cells assessed as growth inhibition at 10 uM after 48 hrs by coulter counter analysis; conditions: HCT-15, 48 h, read-out: GI
# [34] = system: HCC 2998; experiment: Cytotoxicity against human HCC2998 cells assessed as growth inhibition at 10 uM after 48 hrs by coulter counter analysis; conditions: HCC 2998, 48 h, read-out: GI
# [35] = system: COLO 205; experiment: Cytotoxicity against human COLO205 cells assessed as growth inhibition at 10 uM after 48 hrs by coulter counter analysis; conditions: COLO 205, 48 h, read-out: GI
# [36] = system: NCI-H522; experiment: Cytotoxicity against human NCI-H522 cells assessed as growth inhibition at 10 uM after 48 hrs by coulter counter analysis; conditions: NCI-H522, 48 h, read-out: GI
# [37] = system: NCI-H460; experiment: Cytotoxicity against human NCI-H460 cells assessed as growth inhibition at 10 uM after 48 hrs by coulter counter analysis; conditions: NCI-H460, 48 h, read-out: GI
structure (smiles),measurement,setting,value
O=C(CSc1nc2ccccc2c(=O)n1CCc1ccccc1)Nc1cc(Cl)ccc1C(=O)O,inhibition of growth at 10 µM,[1],< 10%
same,inhibition of growth at 10 µM,[2],< 10%
same,inhibition of growth at 10 µM,[3],< 10%
same,inhibition of growth at 10 µM,[4],20%
same,inhibition of growth at 10 µM,[5],< 10%
same,inhibition of growth at 10 µM,[6],< 10%
same,inhibition of growth at 10 µM,[7],< 10%
same,inhibition of growth at 10 µM,[8],< 10%
same,inhibition of growth at 10 µM,[9],18%
same,inhibition of growth at 10 µM,[10],< 10%
same,inhibition of growth at 10 µM,[11],< 10%
same,inhibition of growth at 10 µM,[12],17%
same,inhibition of growth at 10 µM,[13],< 10%
same,inhibition of growth at 10 µM,[14],10%
same,inhibition of growth at 10 µM,[15],< 10%
same,inhibition of growth at 10 µM,[16],< 10%
same,inhibition of growth at 10 µM,[17],< 10%
same,inhibition of growth at 10 µM,[18],< 10%
same,inhibition of growth at 10 µM,[19],< 10%
same,inhibition of growth at 10 µM,[20],< 10%
same,inhibition of growth at 10 µM,[21],< 10%
same,inhibition of growth at 10 µM,[22],< 10%
same,inhibition of growth at 10 µM,[23],< 10%
same,inhibition of growth at 10 µM,[24],< 10%
same,inhibition of growth at 10 µM,[25],< 10%
same,inhibition of growth at 10 µM,[26],< 10%
same,inhibition of growth at 10 µM,[27],< 10%
same,inhibition of growth at 10 µM,[28],< 10%
same,inhibition of growth at 10 µM,[29],< 10%
same,inhibition of growth at 10 µM,[30],< 10%
same,inhibition of growth at 10 µM,[31],< 10%
same,inhibition of growth at 10 µM,[32],< 10%
same,inhibition of growth at 10 µM,[33],< 10%
same,inhibition of growth at 10 µM,[34],< 10%
same,inhibition of growth at 10 µM,[35],< 10%
same,inhibition of growth at 10 µM,[36],< 10%
same,inhibition of growth at 10 µM,[37],< 10%
